Measured values published in patent publication US11229685B2, “Fungal iron acquisition inhibitors and uses thereof” (priority 2013, dated 2022).
Like-named read-outs stand apart in the source and are kept apart here.

Experiments:
[1] = tested on: A. fumigatus strain dsRed; format: in vivo, Aspergillus fumigatus; settings: C57BL/6 mice
Protocol: Aspergillus and Fusarium strains were cultured as described above for 2-3 days, and fresh conidia were disrupted with a bacterial L-loop, harvested in 5 ml PBS, and filtered through sterile PBS soaked cotton gauze in a 10 ml syringe to obtain pure conidial suspensions. Conidia were quantified using a hemocytometer and adjusted in PBS to a final stock solution of 15-20,000 conidia/μl. Mice were anaesthetized with 1.25% 2,2,2-tri-bromoethanol in PBS. The corneal epithelium was abraded using a 30-gauge needle, through which a 2 μl injection containing conidia was released into the corneal stroma using a 33-gauge Hamilton syringe. Mice were examined daily under a stereomicroscope for corneal opacification, and quantified by image analysis using Metamorph software as described. At each time point, animals were euthanized by CO2 asphyxiation, and eyes were either placed in 10% formalin and embedded in paraffin, sectioned at 5 μm intervals and stained with periodic acid schiff and hematoxylin (PASH), or were placed in 1 ml of sterile PBS, homogenized and colony forming units (CFU) were quantified by manual count.
For topical drug delivery, compounds were suspended in a commercial eye drop formulation (Alcon laboratories) or in PBS and 8 μl applied topically at 0 h and 6 h post-infection. Lactoferrin (1.25 mg/ml), deferiprone (10 mM), deferroxamine (10 mM), and simvastatin (4 mM) were purchased from Sigma Aldrich (St. Louis, Mo.). BEC (28 mM) was obtained from Cayman chemicals (Ann Arbor, Mich.). E. coli-expressed recombinant human lipocalin-1 was purified as described previously and applied topically at 2 mg/ml. Iron-dextran and deferroxamine were both purchased from Sigma and administered systemically to mice via daily I.P. injections of 5 mg starting at day −2 until mice were euthanized. All animals were bred under specific pathogen-free conditions and maintained according to institutional guidelines.
Growth of the RFP expressing A. fumigatus strain in the cornea was detected using fluorescent microscopy and quantified by Metamorph image analysis. For assessment of fungal viability, whole eyes were homogenized under sterile conditions in 1 ml PBS, using the Mixer Mill MM300 (Retsch) at 33 Hz for 4 min. Subsequently, 100 μl aliquots were plated onto bacteriologic-grade sabouraud dextrose agar plates, incubated for 24 h at 37° C. (Aspergillus) or at 30° C. (Fusarium and Alternaria), and the number of CFUs was determined by direct counting.

[2] = tested on: A. fumigatus; assay: In vitro human neutrophil:hyphae growth inhibition assay (calcofluor white fluorometry); format: cell-based, Aspergillus fumigatus; settings: for growth of A. fumigatus: incubation in media for 16 h
Protocol: (§1) FIGS. 8(A-G) illustrate a schematic drawing, images, and graphs showing the effect of topical simvastatin and deriprone on fungal infection. A. Statin targeting of fungal HMG-CoA reductase in siderophore biosynthesis. B, C. Effect of statins and iron chelators on growth of A. fumigatus and F. oxysporum in vitro. B. Simvastatin, lovastatin, deferiprone, or deferroxamine were added to growing cultures of A. fumigatus or C. F. oxysporum for 16 h, and hyphal growth was quantified by calcofluor white. D. Growth of A. fumigatus incubated with these compounds in the absence (black bars) or presence (gray bars) of human neutrophils by calcofluor white quantification (data are mean+/−SEM of five replicate wells) E. C57BL/6 mice were infected with A. fumigatus and at 0 and 6 h post-infection 13.4 μg of simvastatin (Sv), deferiprone (11.1 μg), deferroxamine (52.5 μg), Sv+ deferiprone, or Sv+ deferroxamine was applied topically to infected corneas and eyes were imaged at 24 h post-infection. F. Metamorph image analysis was used to quantify fungal dsRed expression and G. eyes were homogenized for CFU analysis. B-D: data are mean+/−SEM of five replicate wells; F, G: data points represent individual corneas.
Human neutrophils were isolated from normal, healthy donors using Ficoll-Paque Plus (GE) density centrifugation as described. Isolated conidia from each A. fumigatus mutant were cultured in 200 μl SDA media (12,500/well) in black-wall 96 well plates with an optically clear bottom (CoStar 3720) until early germ tubes were observed (4-6 h). Wells were washed twice with sterile ddH2O and incubated 16 h with either RPMI media (+ Control), PBS (− Control), or a sublethal dose of human peripheral blood neutrophils in RPMI (0.5−1*10^5/well). At 16 h post-exposure, plates were washed once and stained with 50 μl calcofluor white stain (Binds chitin; Fluka 18909) for 5 min in the dark. Subsequently, plates were washed three times with ddH2O and quantified by fluorometry (360/440 nm; Synergy HT; Biotek).
HMG CoA reductase is required for mevalonate production and can be targeted by statins resulting in decreased siderophore biosynthesis (FIG. 8A). To determine the effect of blocking this pathway on fungal growth, A. fumigatus and Fusarium oxysporum were incubated in media with simvastatin and lovastatin, or with the iron chelators, deferiprone and deferroxamine.

[3] = tested on: F. oxysporum; assay: In vitro hyphal growth of F. oxysporum with statins and iron chelators (calcofluor white); format: cell-based, Fusarium oxysporum; settings: incubation in media for 16 h; b217 says results similar to A. fumigatus (less growth with statins and deferiprone, not deferroxamine)
Protocol: as §1, with “B-D: data are mean+/−SEM of five replicate wells; F, G: data points represent individual corneas.” left out
Human neutrophils were isolated from normal, healthy donors using Ficoll-Paque Plus (GE) density centrifugation as described. […] Subsequently, plates were washed three times with ddH2O and quantified by fluorometry (360/440 nm; Synergy HT; Biotek). […]

[4] = plus human neutrophils, vs neutrophils alone
[5] = topical 16 μg/8 μl at 0 h and 6 h after infection, vs infected mice without exogenous Lcn-1
[6] = topical 10.4 μg in 8 μl at 0 h and 6 h post-infection, 24 h post-infection, vs vehicle

For `Cc1c(O)c(=O)ccn1C` [deferiprone, 1,2 dimethyl-3-hydroxypyrid-4-1], the “fungal dsRed emission” value ([1]; topical at 0 and 6 h post-infection (simvastatin 13.4 μg, deferiprone 11.1 μg, deferroxamine 52.5 μg), 24 h, vs vehicle-treated mice) was “significantly less”, the “growth of A. fumigatus” value ([2]; no neutrophils) was “significantly less growth” and the “A. fumigatus growth in the presence of human neutrophils” value [2, 4] was “inhibited”.
`CC[C@H](C)C(=O)O[C@H]1C[C@@H](C)C=C2C=C[C@H](C)[C@H](CC[C@@H]3C[C@@H](O)CC(=O)O3)[C@H]21` [lovastatin] was tested, and the “growth of A. fumigatus” value ([2]; no neutrophils) was “significantly less growth”, the “A. fumigatus growth in the presence of human neutrophils” value [2, 4] was “inhibited” and the “growth of Fusarium oxysporum” value [3] was “significantly less fungal cell growth”.
`N=C(NO)NCC[C@H](N)C(=O)O` [nNOHA, N^ω-Hydroxy-nor-L-arginine] was tested, and the fungal growth ([2]; 100 μM, no neutrophils, vs RPMI alone) was “significantly lower than in RPMI alone” and the “fungal growth when incubated with neutrophils” value ([2]; plus human neutrophils, vs neutrophils alone, concentration not given) was “not significantly different from neutrophils alone”.
In the case of “Lcn-1: E. coli-expressed recombinant human lipocalin-1, siderophore binding protein”, the CFU [1, 5] is reported as “significantly less”, the “fungal dsRed” value [1, 5] is reported as “significantly less” and the “A. fumigatus growth in the presence of neutrophils” value ([2]; 4 μg/ml plus human neutrophils, vs neutrophils alone or Lcn-1 alone) is reported as “significantly less than in the presence of neutrophils alone or with Lcn-1 alone”. For the same compound, the fungal growth ([2]; 4 μg/ml, absence of neutrophils) was “significantly less” and the fungal growth ([2]; 40 μg/ml, absence of neutrophils) was “significantly less”.
lactoferrin was tested, and the CFU [1, 6] was “significantly less” and the “fungal mass (dsRed)” value [1, 6] was “significantly less”.
